For the assay, the system named is lepidopteran glutamate-gated chloride channel. The experiment in a line: two-electrode voltage clamp recordings of Xenopus oocytes injected with HEGE2 mRNA. The conditions noted are these: held at -80 mV. Type of assay: cell-based, Heliothis virescens. How it is done: Messenger RNA was produced from the cDNA template of HEGE2 by in vitro transcription with the Ambion mMESSAGE mMACHINE IN VITRO TRANSCRIPTION KIT (Ambion, Inc.). The mRNA was injected into oocytes by the following procedure.
Frogs were anesthetized in a 2 gram/liter solution of 3-amino benzoic acid ethyl ester for thirty minutes, after which oocytes were surgically removed from the abdominal cavity. Follicles were digested by collagenase treatment under sterile conditions by standard methods. Oocytes were injected with 50 nl of 1 μg/μl mRNA by glass electrodes.
After a 24 hr incubation, two-electrode voltage clamp recordings were made. Recordings were made using a Dagan, TEV200 voltage clamp interfaced with a MacLab4 data acquisition system running the MacLab Chart data acquisition/analysis software. Oocytes were positioned under a dissection scope under constant perfusion with frog saline (96 mM of NaCl, 2 mM of KCl, 1 mM of MgCl2, 1.8 mM of CaCl2 and 10 mM of HEPES, pH 7.5) using a Razel syringe perfusion pump. Model A99-FY at 93.9 cc/hr. Glass electrodes (A-M Systems. Inc. 1.5 mm×0.86 mm) were filled with 3 M KCl and resistance (a function of the diameter of the channel opening) was measured to be between 0.7 and 1.5 mega ohms. Both electrodes were inserted into the oocyte at opposite sides, the resting potential was recorded and the voltage clamp turned on. […]

On to `N[C@@H](CCC(=O)O)C(=O)O` [glutamate], for which, for the setting “100 uM glutamate, Xenopus oocytes injected with 50 ng of HEGE2 mRNA, FIG. 1”, the “activation of membrane (chloride) current” value is “activate a membrane current”.
On to Ivermectin phosphate, for which the “activation of current in oocytes” value (One micromolar Ivermectin phosphate, Xenopus oocytes expressing HEGE2) was “slowly and irreversibly activated current”.

For the origin of these results see US20020192776A1, “Heliothis glutamate receptor” (Aventis Cropscience SA, priority 2000, published 2002).
